US20060154323A1, “Method for obtaining dynamic and structural data pertaining to proteins and protein/ligand complexes” (ProSpect Pharma, priority 2002, published 2006)

Experiments:
MUP [1] = target: T1, MUP (Mus musculus, UniProt P11588); assay: 13C-1H HSQC spectra of valine-enriched MUP complexes; details: 13C-1H HSQC of complexes with valine-enriched MUP
T1 construct: made in house; host or cells: E. coli M15 cells with vector pqe30 MUP
T1 sequence (P11588 19-180): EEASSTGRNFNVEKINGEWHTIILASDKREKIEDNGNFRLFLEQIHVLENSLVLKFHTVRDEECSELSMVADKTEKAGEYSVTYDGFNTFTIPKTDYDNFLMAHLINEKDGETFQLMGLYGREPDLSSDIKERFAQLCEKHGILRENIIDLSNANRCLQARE

Mouse Urinary Protein = target: T2, Mouse Urinary Protein (Mus musculus, UniProt P11588); assay: 13C NMR relaxation (T1, T2) of valine 13CHD2-labeled MUP in absence and presence of ligand; details: for T1, Change / T2, Change: Protein vs Bound Protein; for T1, Bound Protein / T2, Bound Protein: 298 K;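 on T1, Bound Protein: unit milliseconds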;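 on T2, Bound Protein: unit milliseconds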
T2 construct: made in house; host or cells: E. coli M15 cells with vector pqe30 MUP
T2 sequence (P11588 19-180): T1 sequence (P11588 19-180)
Method: A 15 mg sample of L-valine-α-D-^12CD(^13CHD2)2 labeled MUP was dissolved in 650 μL phosphate buffered saline (10 mM potassium phosphate; 200 mM sodium chloride), to which was added 50 μL deuterium oxide. ^13C Relaxation rates (R2 and R1) of ^13CHD2 groups were determined using pulse sequences as described in Ishima et al., J. Am. Chem. Soc. 121:11589-11590 (1999). Spectral parameters were as follows: spectral width in the ^13C dimension, 900 Hz; spectral width in the ^1H dimension, 5200 Hz; number of real data points in the ^13C dimension, 128; number of real points in the ^1H dimension, 1408; number of transients per t1 increment, 8; probe temperature, 298 K. Prior to two-dimensional Fourier transformation, free induction decays were apodized with cosine-bell windowing functions according to known methods.
The NMR analysis was then repeated following addition of the small molecule ligand 1 μL of isobutyl pyrazine or 1 μL of isopropyl pyrazine to separate solutions of MUP. The data shown below in Tables I and II and in FIG. 8 were obtained, clearly showing the changes in T1 and T2 values obtained on addition of these small molecule ligands.

MUP [2] = target: T1, MUP; assay: Binding of small hydrophobic ligands to MUP (Kd)
Major Urinary Protein = target: T3, Major Urinary Protein (Mus musculus, UniProt P11588); assay: S2axis order parameters of valine methyl groups from 600 MHz 13C R1/R2 relaxation of valine-enriched MUP and its complexes; details: for S^2axis: MUP-ligand complex, 600 MHz, 30° C., pH 7.0
T3 construct: made in house; host or cells: E. coli M15 cells with vector pqe30 MUP
T3 sequence (P11588 19-180): T1 sequence (P11588 19-180)
Method: Samples of [^13C^γ1,^γ2HD2]-U-^2H valine enriched MUP both alone and complexed with 2-methoxy-3-isopropylpyrazine and 2-methoxy-3-isobutylpyrazine were prepared from a single sample at pH 7.0 and a protein concentration of 1 mM. A further sample of methyl-^13C, ^2H enriched MUP was prepared at pH 7.0 and a protein concentration of 0.5 mM. Longitudinal (R1) and transverse (R2) ^13C relaxation rates were determined essentially as described by Ishima et al., J. Am. Chem. Soc. 121:11589-11590, 1999. All spectra were recorded at a proton frequency of 600 MHz and a probe temperature of 30° C. R1 rates were determined with relaxation delay times of 16, 64, 128, 240, 400, 720, 1120, 1600, 2240 and 2880 milliseconds. R2 rates were determined with relaxation delay times of 16, 32, 48, 64, 96, 160, 192, 240 and 288 milliseconds, and an effective field strength of 2 kHz. Relaxation data were fit to a single exponential decay function I=I0exp(−tR), where I0 is the initial resonance intensity, t is the relaxation delay time and R is the relaxation rate (R1 or R2). Relaxation data were fitted to the Lipari-Szabo model-free spectral density of the form: J(ω)=S^2τm/(1+ω^2τ^2m)+(1−S^2)τi/(1+ω^2τi^2), where τi^−1=τM^−1+τe^−1, τM is the overall molecular tumbling correlation time and τe is the effective internal correlation time. See Lipari and Szabo, J. Am. Chem. Soc. 104:4546-4559, 1982. This equation is valid for fast internal motions, τe<<τM, under which conditions the order parameter for methyl CH dipolar relaxation is given by S^2=Saxis^2[P2(cos θH]^2. Saxis^2 is the order parameter of the methyl rotation axis and θH is the angle made by the axis and the CH bond vector. A global rotational correlation time of […] was used for these calculations, according to the previously reported value. Zidek et al., Nature Str. Biol. 6:1118-1121, 1999. Although the valine residues were perdeuterated at non-methyl positions, the protein was otherwise protonated, and dipolar relaxation due to these “external” protons is not negligible for ^13C relaxation. Thus, by analogy with the work of Ishima et al. J. Am. Chem. Soc. 123:6164-6171, 2001, the contribution of these external protons to ^13C R2 values was estimated at 25% from the X-ray coordinates of MUP. Consequently, measured ^13C R^2 rates were multiplied by 0.75 to account for these external dipolar relaxation processes.

[3] = valine methyl 59.HG1 (first line)
[4] = valine methyl 59.HG1 (second line)

- shift perturbations of Val 82 γ1 and γ2 correlations (MUP [1]): Significant shift perturbations
- T1, Change (Mouse Urinary Protein; 12.HG1): 35.219 milliseconds
- T2, Change (Mouse Urinary Protein; 12.HG1): −13.500 milliseconds
- T2, Change (Mouse Urinary Protein; 12.HG2): −16.796 milliseconds
- T1, Change (Mouse Urinary Protein; 47.HG1): 9.550 milliseconds
- T2, Change (Mouse Urinary Protein; 47.HG1): −16.055 milliseconds
- T1, Change (Mouse Urinary Protein; 47.HG2): −82.069 milliseconds
- T2, Change (Mouse Urinary Protein; 47.HG2): −12.196 milliseconds
- T1, Change (Mouse Urinary Protein; 53.HG1): −98.976 milliseconds
- T2, Change (Mouse Urinary Protein; 53.HG1): −10.901 milliseconds
- T1, Change (Mouse Urinary Protein; 53.HG2): 17.840 milliseconds
- T2, Change (Mouse Urinary Protein; 53.HG2): −13.096 milliseconds
- T1, Change (Mouse Urinary Protein; 59.HG1 (first line)): −84.312 milliseconds
- T2, Change (Mouse Urinary Protein; 59.HG1 (first line)): −22.344 milliseconds
- T1, Change (Mouse Urinary Protein; 59.HG1 (second line)): 20.312 milliseconds
- T2, Change (Mouse Urinary Protein; 59.HG1 (second line)): −3.040 milliseconds
- T1, Change (Mouse Urinary Protein; 70.HG1): 379.619 milliseconds
- T2, Change (Mouse Urinary Protein; 70.HG1): −65.766 milliseconds
- T1, Change (Mouse Urinary Protein; 70.HG2): −324.602 milliseconds
- T2, Change (Mouse Urinary Protein; 70.HG2): 33.869 milliseconds
- T1, Change (Mouse Urinary Protein; 82.HG1): 1.260 milliseconds
- T2, Change (Mouse Urinary Protein; 82.HG1): 7.645 milliseconds
- T1, Change (Mouse Urinary Protein; 82.HG2): −33.349 milliseconds
- T2, Change (Mouse Urinary Protein; 82.HG2): 22.399 milliseconds
- contribution of valine side-chains to the entropy of binding (Mouse Urinary Protein; from relaxation data in the presence of ligand): do not contribute significantly
- T1, Bound Protein (Mouse Urinary Protein; valine methyl 12.HG1): 1760.141 milliseconds
- T2, Bound Protein (Mouse Urinary Protein; valine methyl 12.HG1): 166.608 milliseconds
- T2, Bound Protein (Mouse Urinary Protein; valine methyl 12.HG2): 200.110 milliseconds
- T1, Bound Protein (Mouse Urinary Protein; valine methyl 47.HG1): 1619.169 milliseconds
- T2, Bound Protein (Mouse Urinary Protein; valine methyl 47.HG1): 171.287 milliseconds
- T1, Bound Protein (Mouse Urinary Protein; valine methyl 47.HG2): 1072.690 milliseconds
- T2, Bound Protein (Mouse Urinary Protein; valine methyl 47.HG2): 162.950 milliseconds
- T1, Bound Protein (Mouse Urinary Protein; valine methyl 53.HG1): 2332.247 milliseconds
- T2, Bound Protein (Mouse Urinary Protein; valine methyl 53.HG1): 174.600 milliseconds
- T1, Bound Protein (Mouse Urinary Protein; valine methyl 53.HG2): 1382.566 milliseconds
- T2, Bound Protein (Mouse Urinary Protein; valine methyl 53.HG2): 163.379 milliseconds
- T1, Bound Protein (Mouse Urinary Protein; [3]): 1367.075 milliseconds
- T2, Bound Protein (Mouse Urinary Protein; [3]): 200.992 milliseconds
- T1, Bound Protein (Mouse Urinary Protein; [4]): 1502.825 milliseconds
- T2, Bound Protein (Mouse Urinary Protein; [4]): 150.756 milliseconds
- T1, Bound Protein (Mouse Urinary Protein; valine methyl 70.HG1): 1701.953 milliseconds
- T2, Bound Protein (Mouse Urinary Protein; valine methyl 70.HG1): 186.968 milliseconds
- T1, Bound Protein (Mouse Urinary Protein; valine methyl 70.HG2): 1488.130 milliseconds
- T2, Bound Protein (Mouse Urinary Protein; valine methyl 70.HG2): 128.164 milliseconds
- T1, Bound Protein (Mouse Urinary Protein; valine methyl 82.HG1): 913.641 milliseconds
- T2, Bound Protein (Mouse Urinary Protein; valine methyl 82.HG1): 216.738 milliseconds
- T1, Bound Protein (Mouse Urinary Protein; valine methyl 82.HG2): 703.150 milliseconds
- T2, Bound Protein (Mouse Urinary Protein; valine methyl 82.HG2): 201.054 milliseconds
- Kd (MUP [2]): 80 nM
- changes in Saxis^2 of the six valine residues in MUP upon binding (Major Urinary Protein): only minor changes
- S^2axis (Major Urinary Protein; Val-12 C^γ1): 0.86
- S^2axis (Major Urinary Protein; Val-12 C^γ2): 0.66
- S^2axis (Major Urinary Protein; Val-47 C^γ1): 0.86
- S^2axis (Major Urinary Protein; Val-47 C^γ2): 0.88
- S^2axis (Major Urinary Protein; Val-53 C^γ1): 0.78
- S^2axis (Major Urinary Protein; Val-53 C^γ2): 0.86
- S^2axis (Major Urinary Protein; Val-59 C^γ1): 0.63
- S^2axis (Major Urinary Protein; Val-59 C^γ2): 0.90
- S^2axis (Major Urinary Protein; Val-70 C^γ1): 0.81
- S^2axis (Major Urinary Protein; Val-70 C^γ2): [1.03]
- S^2axis (Major Urinary Protein; Val-82 C^γ1): 0.53
- S^2axis (Major Urinary Protein; Val-82 C^γ2): 0.53
- contribution of valine side-chains to the entropy of binding (Major Urinary Protein; from computations of Saxis^2 values, free protein and complexes): do not contribute significantly
SMILES: COc1nccnc1CC(C)C [2-methoxy-3-isobutylpyrazine]
